# Test results: US20180085416A1, “TRADITIONAL CHINESE MEDICINE COMPOSITION AND PREPARATION METHOD AND USE THEREOF” (INFINITUS (CHINA) COMPANY LTD., priority 2016, published 2018)
# How the values were obtained:
# [1] = test system: capsaicin induced rats' pharyngitis; assay: Effect on acute pharyngitis (capsaicin induced pharyngitis), EB dye exudation at pharyngeal mucosa; type: in vivo, SD rats; details: 1 mg/kg intragastric, 10 days before modeling
# Procedure: Experimental method: 90 male SD rats (˜8 weeks age) were randomized into 9 groups (10 rats/group). […] Animals from Comparative Example groups and Example of the present application groups were intragastrically administrated 30 days before modeling, once a day. Blank control group and model control group were administered equal volume of distilled water. […] The positive control group was administered at 1 mg/kg, and was intragastrically administrated 10 days before modeling. 24 hours after the last administration, the rats were anesthetized, injected with EB dye through the side tail vein. Ten minutes later, capsaicin was smeared to velopharyngeal tissue mucosa of rats, wherein each point was smeared for 3 times/5 seconds, with a total of 60 minutes. Blank control group was not subjected to stimulation.
# After the end of the experiment, all rats were sacrificed by cervical dislocation, and were subjected to quantitative determination of EB dye exudation at pharyngeal mucosa respectively, in order to evaluate the improvement situation of pharyngeal mucosa inflammation of rats induced by capsaicin.
# [2] = test system: carrageenan induced toe swelling of mice; assay: Acute inflammatory model: carrageenan-induced paw edema; type: in vivo, Balb/c mice; details: 10 mg/kg, blank control = 100
# Procedure: 90 Balb/c male mice (about 8 weeks old) were randomized into 9 groups based on body weight (10 mice/group). The groups were respectively blank control group, model group and positive control group—dexamethasone group, high, medium and low dose groups of the traditional Chinese medicine composition produced by Comparative Example 1 (0.35, 1.05, 2.10 ml/kg), high, medium and low dose groups of the medicament produced by Example 1 (0.35, 1.05, 2.10 ml/kg). Animals from Comparative Example group and Examples of the present application groups were intragastrically administrated 30 days before modeling, once a day. Blank control group and model control group were administered equal volume of distilled water. The administration volume was always 2.10 ml/kg. Dexamethasone group was administered at 10 mg/kg, and was intragastrically administrated 10 days before modeling. The model control group was intragastrically administrated equal volume of distilled water for consecutive 30 days, once a day. On day 30, 1 hour after the test samples were administered, a line was drawn using a marker pen along the external malleolus of right rear paw of rats as the marker. A toe volume measuring instrument was used to measure the volumes of right rear toes of each groups of rats (as the toe volume at 0 hour), and then the right rear toes of rats were subcutaneously injected 1% carrageenan (0.05 mL/rat). The thickness of rat paws at 1, 2, 4 hours were measured respectively. Each animal was measured for 3 times at the same site, and the results were averaged. The swelling value is defined as the difference between the toe volumes measured at different times and the toe volumes before the action of proinflammatory agent, which is used to calculate the toe volume swelling rates at each time period.
# [Paw edema (mm)]=[footpad thickness of carrageenan (mm)−footpad thickness of PBS (mm)].
# mouse tampon granuloma = assay: Chronic inflammatory model: cotton pellet (tampon) induced granuloma; type: in vivo, Balb/c mice; details: mice, 10 mg/kg
# Procedure: 80 Balb/c male mice (about 8 weeks old) were randomized into 8 groups based on body weight (10 mice/group). The groups were respectively model group and positive control group—dexamethasone group, high, medium and low dose groups of the traditional Chinese medicine composition produced by Comparative Example 1 (0.35, 1.05, 2.10 ml/kg), high, medium and low dose groups of the medicament produced by Example 1 (0.35, 1.05, 2.10 ml/kg). Animals from Comparative Example group and Examples of the present application groups were intragastrically administrated 30 days before modeling, once a day. Model control group was administered equal volume of deionized water. The administration volume was always 2.10 ml/kg. Dexamethasone group was administered at 10 mg/kg, and was intragastrically administrated 10 days before modeling. After the last administration, the mice were anesthetized by intraperitoneal injection of 3% pentobarbital sodium at a dose of 60 mg/kg body weight. After anesthesia, the animals were fixed in supine position, and the bilateral inguinal clothing hairs of the rats were removed with a hair removal device. After iodophor disinfection, the rats were subjected to skin incision for about 2 cm at both sides of the groin, and a sterilized tampon was implanted at both sides of the groin of the rats. […]
# [3] = test system: excreted amount of phenol red in trachea of mice; assay: Expectorant effect in mice (phenol red excretion in trachea); type: in vivo, Balb/c mice
# Procedure: 80 Balb/c male mice (about 8 weeks old) were randomized into 8 groups based on body weight (10 mice/group). The groups were respectively blank control group and positive control group—ammonium chloride group (1 g/kg), high, medium and low dose groups of the traditional Chinese medicine composition produced by Comparative Example 1 (0.35, 1.05, 2.10 ml/kg), high, medium and low dose groups of the medicament produced by Example 1 (0.35, 1.05, 2.10 ml/kg). The blank control group was administered equal volume of deionized water. The administration volume was always 2.10 ml/kg. Gavage was performed for consecutive 30 days, once/day. 30 min before modeling, the positive control group was administered. […] A certain amount of phenol red was weighted with a balance, and 5% sodium bicarbonate solution was added to formulate 1 ml solution containing […] of phenol red, which was diluted sequentially to 1 mL solution containing 0.1, 0.3, 0.7, 1.0, 3.0, 5.0, 10.0 μg of phenol red was measured for absorbance. A standard curve was made by taking the dose of phenol red as abscissa, absorbance as ordinate. The amount of phenol red was calculated from the standard curve of phenol red according to the measured OD value. […]
SMILES,exudated amount of evans blue (EB) [1],"Swelling degrees of toes at different times after inflammation, 1 h ([2]; 1 h)","Swelling degrees of toes at different times after inflammation, 2 h ([2]; 2 h)","Swelling degrees of toes at different times after inflammation, 4 h ([2]; 4 h)",wet weight of granuloma (mouse tampon granuloma),Net weight of granuloma (mouse tampon granuloma; dried weight minus original weight of tampon),"excreted amount of phenol red, result in words ([3]; compared with control group)","excreted amount of phenol red ([3]; mice, 1 g/kg, 30 min before modeling)"
"C[C@@H]1C[C@H]2[C@@H]3CCC4=CC(=O)C=C[C@]4(C)[C@@]3(F)[C@@H](O)C[C@]2(C)[C@@]1(O)C(=O)CO [dexamethasone, Dexamethasone]",36.98 ± 2.74 µg/g,177.23,164.17,157.17,217.11,13.03 mg,,
Cl.N [ammonium chloride],,,,,,,significantly (P<0.05) increase the excreted amount of phenol red,7.92 ± 0.88 µg/mL
